These are literature values, as cited in patent US9700574B2, “Use of secnidazole in treatment of dental infections” (ATHENA PHARMACEUTIQUES SAS, priority 2011, dated 2017).

SMILES strings stand for the structures.

For series [1] the following is noted: in vivo.
The next series has as its system tested microorganisms. The following applies: in vitro; oro-dental gel for the periodontal pocket; Drug Development and Industrial Pharmacy 34:1356-1367, 2008.

For `CC[C@H]1OC(=O)[C@H](C)[C@@H](O[C@H]2C[C@@](C)(OC)[C@@H](O)[C@H](C)O2)[C@H](C)[C@@H](O[C@@H]2O[C@H](C)C[C@H](N(C)C)[C@H]2O)[C@](C)(O)C[C@@H](C)CN(C)[C@H](C)[C@@H](O)[C@]1(C)O` [azithromycine], in series [1], the half-life result was “about 20 hours”. With `Cc1ncc([N+](=O)[O-])n1CC(C)O` (stereo not drawn) [secnidazole, alpha-2-dimethyl-5-nitro-1H-imidazole-1-ethanol], in the series with tested microorganisms, the “minimal inhibition concentration for the tested microorganisms” value was 0.125-5 μg of secnidazole per ml of gel. Besides, the half-life entry in series [1] is “about 25 hours”.
